Reference: patent US20100256048A1, “POLYPEPTIDE COMPOUND” (Astellas Pharma Inc., priority 2007, published 2010)

Key:
[1] = test system: A. fumigatus 20030; experiment: Mouse respiratory infection model; assay type: in vivo, Aspergillus fumigatus; conditions: male ICR mice given cyclophosphamide, compound intravenously, lives and deaths observed over 10 days
Description: Effect to Mouse Respiratory Infection Model
4-week old male ICR mice were used so as to be eight mice in a group. 200 mg/kg of cyclophosphamide is intraperitoneally administered into mice at 4 days before infection and 1 day after infection. Conidium liquid (0.05 mL: approximately 2.2×10^6) of A. fumigatus 20030 suspended in physiological saline was inoculated from respiratory passages of mice to cause respiratory infection. The compound was administered intravenously for 2 hours to 4 days after the infection. The lives and deaths of the mice were observed over a 10 day period starting from the next day.

[2] = test system: C. albicans (Candida albicans); experiment: MIC in human serum by microdilution, C. albicans; assay type: cell-based; conditions: human serum buffered with 20 mM HEPES pH 7.3; 37° C., 24 hours, 5% CO2; geometric mean of three clinical cell lines; growth completely inhibited
Description: (§1) Measurement of Susceptibility to C. albicans (Candida albicans) and A. fumigatus (Aspergillus fumigatus) By the microdilution method where human serum buffered with 20 mM-HEPES buffer (pH 7.3) was used as a test medium, MIC (minimum inhibitory concentration) in human serum was determined. The inoculum suspension of 10^6 cells/mL was prepared by a hemocytometric procedure to obtain an inoculum size of approximately 5×10^3 to 2×10^4cells/mL. Microplates were incubated at 37° C. for 24 hours under 5% CO2 atmosphere. […] The values were shown as geometric mean of MIC with reference to three of clinical cell lines.

[3] = test system: A. fumigatus (Aspergillus fumigatus); experiment: MIC in human serum by microdilution, A. fumigatus; assay type: cell-based; conditions: human serum buffered with 20 mM HEPES pH 7.3; 37° C., 24 hours, 5% CO2; geometric mean of three clinical cell lines; growth sufficiently inhibited versus growth control
Description: as §1

| SMILES | Infection experiments ED50 A. fumigatus [1] [mg/kg] | MIC (mean of three cell lines) C. albicans [2] [µg/mL] | MIC (mean of three cell lines) A. fumigatus [3] [µg/mL] |
| --- | --- | --- | --- |
| COc1cc(C[C@@H](O)[C@@H]2NC(=O)[C@@H]3C[C@@H](O)CN3C(=O)[C@H]([C@@H](C)O)NC(=O)[C@@H](NC[C@H]3CC[C@H](c4nnc(-c5ccc(N6CCC(OC)(C7CCCCC7)CC6)cc5)s4)CC3)C[C@@H](O)CNC(=O)[C@@H]3[C@@H](O)[C@@H](C)CN3C(=O)[C@H]([C@H](O)CCN)NC2=O)ccc1O [Ex 1] | <0.3 | – | – |
| COc1cc(C[C@@H](O)[C@@H]2NC(=O)[C@@H]3C[C@@H](O)CN3C(=O)[C@H]([C@@H](C)O)NC(=O)[C@@H](NC[C@H]3CC[C@H](c4nnc(-c5ccc(N6CCC(OC)(C7CCCCC7)CC6)cc5)s4)CC3)C[C@@H](O)CNC(=O)[C@@H]3[C@@H](O)[C@@H](C)CN3C(=O)[C@H]([C@H](O)CCNC(CO)CO)NC2=O)ccc1O [Ex 6] | 0.44 | – | – |
| C[C@@H](O)[C@@H]1NC(=O)[C@@H](NCC2CCN(c3nnc(-c4ccc(-c5cnc(N6CCC(OC7CCCCC7)CC6)nc5)cc4)s3)CC2)C[C@@H](O)CNC(=O)[C@@H]2[C@@H](O)[C@@H](C)CN2C(=O)[C@H]([C@H](O)CC(=O)NCCN)NC(=O)[C@H]([C@H](O)Cc2ccc(O)c(OS(=O)(=O)O)c2)NC(=O)[C@@H]2C[C@@H](O)CN2C1=O [Ex 30] | – | 0.4 | 0.32 |
| C[C@@H](O)[C@@H]1NC(=O)[C@@H](NC[C@H]2CC[C@H](c3nnc(-c4ccc(N5CCC(OC6CCCCC6)CC5)cc4)s3)CC2)C[C@@H](O)CNC(=O)[C@@H]2[C@@H](O)[C@@H](C)CN2C(=O)[C@H]([C@H](O)CCNC(CO)CO)NC(=O)[C@H]([C@H](O)Cc2ccc(O)c(OS(=O)(=O)O)c2)NC(=O)[C@@H]2C[C@@H](O)CN2C1=O [Ex 33] | 0.39 | – | – |
